Results taken from patent publication US20250082633A1, “COMPOUNDS AND METHODS FOR MODULATING SPLICING” (REMIX THERAPEUTICS INC., priority 2021, published 2025).
pIC50: −log10 of the molar value.

What was measured:
[1] = test system: HiBiT-tagged HTT protein in K562 cells; assay: HiBit protein abundance assay, HTT; type: cell-based, human; details: K562 HiBiT-modified cells, 24 hours, luminescence
Description: Compounds described herein were used to screen for effects on quantitative protein abundance using a HiBit assay system (Promega). Quantitative protein abundance was determined by measuring the protein levels of HiBit-tagged protein targets expressed in cell culture via luminescence using the Nano-Glo HiBiT Lytic Detection System, which uses a split complementation assay format to reconstitute NanoBiT enzyme to generate a luminescent signal. A protein abundance assay was developed such that endogenous protein targets could be modified with the HiBiT peptide tag and their abundance could be assessed after compound treatment. Briefly, K562 cell lines containing a HiBiT-modification were treated with various compounds described herein (e.g., compounds of Formulas (I), (II), or (III)). After treatment for 24 hours, the protein abundance of a specific target was determined by measuring luminescence. • Promega Nano-Glo HiBiT Lytic Detection System (cat #N3030) • Corning 384-well TC-treated microplates (cat #3570) • Synthego Engineered Cells Knock-In Clones [table] Cells were maintained in IMDM with 10% FBS. Before the assay, cells were diluted with phenolphthalein-free growth media (IMDM+1% FBS media) and were seeded in a 384-well plate at a density of 10000 cells/well (for each cell line listed in Table 6). Each compound was prepared as a 10-point 3-fold serial dilution in DMSO with the top dose at a final concentration of 10 μM in the well. Unmodified K562 cells were added at the previously specified density with DMSO to serve as an assay baseline and positive control (PC) and DMSO only with the respective modified cell lines was added to the negative control (NC) columns. Final DMSO concentration was kept at or below 0.25%. Treated cell plates were placed in an incubator at 37° C. with 5% CO2 for 24 hours. After 24 hours, 25 μL of Complete HiBit Lytic reagent was added to each well at room temperature (e.g. one plate requiring 10 mL Lytic Buffer, 100 μL LgBiT Protein, 200 μL Lytic Substrate), shaken for 5 minutes at 600 RPM, then left to sit for 10 minutes for signal to stabilize before reading on a Spark Cyto plate reader (Tecan) with a 500 ms measurement time. To determine compound effects on protein abundance of each target in Table 6, the percent response for each respective cell line was calculated at each compound concentration as follows: For the normalized response at each concentration, a four-parameter logistical regression was fit to the data and the response was interpolated at the 50% value to determine a concentration for protein abundance at 50% (IC50) the untreated control.

Target C = assay: RT-qPCR splicing assay, gene panel, Target C canonical junction (CJ) mRNA; type: cell-based; details: Homo sapiens; decrease in CJ mRNA levels; larger panel of genes; Table 3; read-out: Target C CJ IC50
In short: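 A673 (DMEM/10% FBS) or K562 (IMDM/10% FBS) cells were treated 24 h at 37 °C with an 11-point 3-fold dilution series, top final 10 uM, DMSO ≤0.25%. Lysates underwent one-step RT-qPCR for the canonical-junction isoform with GAPDH, GUSB or PPIA as housekeeper. ΔΔCt versus DMSO was converted to RQ (2^−ΔΔCt), then to percent response.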

Row | Structure (SMILES) | pIC50 [1] | pIC50 (Target C)
1 | Cc1cn2cc(-c3cc(F)c4nn(C5CCNCC5)cc4c3)nc(C)c2n1 [Compound 132, 6-[7-fluoro-2-(4-piperidyl)indazol-5-yl]-2,8-dimethyl-imidazo[1,2-a]pyrazine] | 6.00 to 7.00 | 5.00 to 6.00
2 | Cc1cc(-c2cc(F)c3nn(C4CCNCC4)cc3c2)cc2cn(C)nc12 [Compound 133, 5-(2,7-dimethylindazol-5-yl)-7-fluoro-2-(4-piperidyl)indazole] | > 7.00 | 6.00 to 7.00
3 | Cc1nc2ccc(-c3cc(F)c4nn(C5CCNCC5)cc4c3)cc2s1 [Compound 134, 6-(7-fluoro-2-(piperidin-4-yl)-2H-indazol-5-yl)-2-methylbenzo[d]thiazole] | 5.00 to 6.00 | < 5.00
4 | Cc1nc2ccc(-c3cc(F)c4nn(C5CCNCC5)cc4c3)cc2o1 [Compound 135, 6-[7-fluoro-2-(4-piperidyl)indazol-5-yl]-2-methyl-1,3-benzoxazole] | > 7.00 | 6.00 to 7.00
5 | Cc1nc2c(C)cc(-c3cc(F)c4nn(C5CCNCC5)cc4c3)cc2o1 [Compound 137, 6-[7-fluoro-2-(4-piperidyl)indazol-5-yl]-2,4-dimethyl-1,3-benzoxazole] | > 7.00 | 6.00 to 7.00
6 | COC1=C(C)C2N=C(C)OC2C=C1c1cc(F)c2nn(C3CCNCC3)cc2n1 (centres unmarked) [Compound 144] | 5.00 to 6.00 | < 5.00
7 | CCN1CCC(n2cc3cc(-c4cc(C)c5nc(C)cn5n4)cc(F)c3n2)CC1 [Compound 146, 6-[2-(1-ethyl-4-piperidyl)-7-fluoro-indazol-5-yl]-2,8-dimethyl-imidazo[1,2-b]pyridazine] | > 7.00 | 6.00 to 7.00
8 | Cc1cn2nc(-c3cc4cn(C5CCNCC5)nc4cn3)cc(C)c2n1 [Compound 147, 2,8-dimethyl-6-[2-(4-piperidyl)pyrazolo[3,4-c]pyridin-5-yl]imidazo[1,2-b]pyridazine] | 6.00 to 7.00 | 6.00 to 7.00
9 | Cn1cc2cc(-c3ccc4cn(C5CCNCC5)nc4c3)cc(F)c2n1 [Compound 148, 7-fluoro-2-methyl-5-[2-(4-piperidyl)indazol-6-yl]indazole] | 5.00 to 6.00 | < 5.00
10 | Cc1cn2nc(-c3cc(F)c4nn(C5CCN(CC6CC6)CC5)cc4c3)cc(C)c2n1 [Compound 149, 6-[2-[1-(cyclopropylmethyl)-4-piperidyl]-7-fluoro-indazol-5-yl]-2,8-dimethyl-imidazo[1,2-b]pyridazine] | > 7.00 | > 7.00

Now from value to compound:

Row | pIC50 [1] | pIC50 (Target C) | Structure (SMILES)
11 | > 7.00 | 6.00 to 7.00 | Cc1nc2c(F)cc(-c3cc(F)c4nn(C5CCNCC5)cc4c3)cc2o1 [Compound 136, 4-fluoro-6-[7-fluoro-2-(4-piperidyl)indazol-5-yl]-2-methyl-1,3-benzoxazole]
12 | 6.00 to 7.00 | 6.00 to 7.00 | Cc1cn2nc(-c3ccc4nn(C5CCNCC5)cc4n3)cc(C)c2n1 [Compound 138, 2,8-dimethyl-6-[2-(4-piperidyl)pyrazolo[4,3-b]pyridin-5-yl]imidazo[1,2-b]pyridazine]
13 | 6.00 to 7.00 | 6.00 to 7.00 | Cc1cn2nc(-c3cc4cn(C5CCNCC5)nc4c(O)n3)cc(C)c2n1 [Compound 139, 5-(2,8-dimethylimidazo[1,2-b]pyridazin-6-yl)-2-(4-piperidyl)-6H-pyrazolo[3,4-c]pyridin-7-one]
14 | 5.00 to 6.00 | 5.00 to 6.00 | COc1cc(-c2cc3cn(C)nc3cc2O)nc2cn(C3CCNCC3)nc12 [Compound 140, 5-[7-methoxy-2-(4-piperidyl)pyrazolo[4,3-b]pyridin-5-yl]-2-methyl-indazol-6-ol]
15 | < 5.00 | < 5.00 | Cn1cc2cc(-c3cc(Cl)c4nn(C5CCNCC5)cc4n3)c(O)cc2n1 [Compound 141]
16 | 6.00 to 7.00 | 6.00 to 7.00 | Cn1cc2cc(-c3cc(F)c4nn(C5CCNCC5)cc4c3)ccc2n1 [Compound 145, 7-fluoro-5-(2-methylindazol-5-yl)-2-(4-piperidyl)indazole]
